Measured values reported in the supplement of paper PMC10307832.

Legend:
Experiment in all cases: relative viability (nuclei count vs DMSO), 5 days (fraction); higher = more cells survive
Entinostat + Lapatinib = compound: Nc1ccccc1NC(=O)c1ccc(CNC(=O)OCc2cccnc2)cc1 [Entinostat] + CS(=O)(=O)CCNCc1ccc(-c2ccc3ncnc(Nc4ccc(OCc5cccc(F)c5)c(Cl)c4)c3c2)o1 [Lapatinib] (partner 2 µM)
Procedure, shortened: (§1)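 One day after seeding in 1536-well plates, lung cancer cell lines were dosed by pin tool. Dosing was either single-drug or a fixed anchor-drug dose plus five library-drug doses (not always all listed) in √10 steps. After 5 days, nuclei were stained in one fix-and-stain step and counted on 4× images, and relative viability is the nuclei count of treated wells over that of vehicle wells, given as the median of duplicate plates.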

[1] = compound: C1COCCN1C2=NC(=NC3=C2OC4=C3C=CC=N4)C5=CC(=CC=C5)NC(=O)C6=CN=C(C=C6)N + Cc1nc(NC(=O)N2CCC[C@H]2C(N)=O)sc1-c1ccnc(C(C)(C)C(F)(F)F)c1 [Alpelisib] (partner 2 µM)
Procedure, shortened: as §1

SGI-1776 + Olaparib = compound: CN1CCC(CNc2ccc3ncc(-c4cccc(OC(F)(F)F)c4)n3n2)CC1 [SGI-1776] + O=C(c1cc(Cc2n[nH]c(=O)c3ccccc23)ccc1F)N1CCN(C(=O)C2CC2)CC1 [Olaparib] (partner 8 µM)
Procedure, shortened: as §1

SGI-1776 + Trametinib = compound: CN1CCC(CNc2ccc3ncc(-c4cccc(OC(F)(F)F)c4)n3n2)CC1 [SGI-1776] + CC(=O)Nc1cccc(-n2c(=O)n(C3CC3)c(=O)c3c(Nc4ccc(I)cc4F)n(C)c(=O)c(C)c32)c1 [Trametinib] (partner 0.02 µM)
Procedure, shortened: as §1

NCI-H2023
relative viability (Entinostat + Lapatinib; first compound 0.02 µM): 0.633
relative viability (Entinostat + Lapatinib; first compound 0.06325 µM): 0.585
relative viability (Entinostat + Lapatinib; first compound 0.2 µM): 0.261
relative viability (Entinostat + Lapatinib; first compound 0.6325 µM): 0.129
relative viability (Entinostat + Lapatinib; first compound 2 µM): 0.0771
relative viability ([1]; first compound 0.02 µM): 0.68
relative viability ([1]; first compound 0.06325 µM): 0.621
relative viability ([1]; first compound 0.2 µM): 0.544
relative viability ([1]; first compound 0.6325 µM): 0.438
relative viability ([1]; first compound 2 µM): 0.359
relative viability (SGI-1776 + Olaparib; first compound 0.08 µM): 0.499
relative viability (SGI-1776 + Olaparib; first compound 0.8 µM): 0.516
relative viability (SGI-1776 + Olaparib; first compound 2.53 µM): 0.51
relative viability (SGI-1776 + Olaparib; first compound 8 µM): 0.347
relative viability (SGI-1776 + Trametinib; first compound 0.08 µM): 0.539
relative viability (SGI-1776 + Trametinib; first compound 0.8 µM): 0.508
relative viability (SGI-1776 + Trametinib; first compound 2.53 µM): 0.491
relative viability (SGI-1776 + Trametinib; first compound 8 µM): 0.312

NCI-H2085
relative viability (Entinostat + Lapatinib; first compound 0.02 µM): 0.748
relative viability (Entinostat + Lapatinib; first compound 0.06325 µM): 0.825
relative viability (Entinostat + Lapatinib; first compound 0.2 µM): 0.744
relative viability (Entinostat + Lapatinib; first compound 0.6325 µM): 0.545
relative viability (Entinostat + Lapatinib; first compound 2 µM): 0.443
relative viability ([1]; first compound 0.02 µM): 0.956
relative viability ([1]; first compound 0.06325 µM): 0.988
relative viability ([1]; first compound 0.2 µM): 0.926
relative viability ([1]; first compound 0.6325 µM): 0.909
relative viability ([1]; first compound 2 µM): 0.596
relative viability (SGI-1776 + Olaparib; first compound 0.08 µM): 0.758
relative viability (SGI-1776 + Olaparib; first compound 0.8 µM): 0.797
relative viability (SGI-1776 + Olaparib; first compound 2.53 µM): 0.926
relative viability (SGI-1776 + Olaparib; first compound 8 µM): 0.794
relative viability (SGI-1776 + Trametinib; first compound 0.08 µM): 0.665
relative viability (SGI-1776 + Trametinib; first compound 0.8 µM): 0.612
relative viability (SGI-1776 + Trametinib; first compound 2.53 µM): 0.511
relative viability (SGI-1776 + Trametinib; first compound 8 µM): 0.453

NCI-H2087
relative viability (Entinostat + Lapatinib; first compound 0.02 µM): 1.03
relative viability (Entinostat + Lapatinib; first compound 0.06325 µM): 0.792
relative viability (Entinostat + Lapatinib; first compound 0.2 µM): 0.861
relative viability (Entinostat + Lapatinib; first compound 0.6325 µM): 0.536
relative viability (Entinostat + Lapatinib; first compound 2 µM): 0.54
relative viability ([1]; first compound 0.02 µM): 1.05
relative viability ([1]; first compound 0.06325 µM): 1.12
relative viability ([1]; first compound 0.2 µM): 1.05
relative viability ([1]; first compound 0.6325 µM): 1.12
relative viability ([1]; first compound 2 µM): 0.619
relative viability (SGI-1776 + Olaparib; first compound 0.08 µM): 0.601
relative viability (SGI-1776 + Olaparib; first compound 0.8 µM): 0.637
relative viability (SGI-1776 + Olaparib; first compound 2.53 µM): 0.727
relative viability (SGI-1776 + Olaparib; first compound 8 µM): 0.521
relative viability (SGI-1776 + Trametinib; first compound 0.08 µM): 0.151
relative viability (SGI-1776 + Trametinib; first compound 0.8 µM): 0.164
relative viability (SGI-1776 + Trametinib; first compound 2.53 µM): 0.16
relative viability (SGI-1776 + Trametinib; first compound 8 µM): 0.17

NCI-H2126
relative viability (Entinostat + Lapatinib; first compound 0.02 µM): 0.794
relative viability (Entinostat + Lapatinib; first compound 0.06325 µM): 0.78
relative viability (Entinostat + Lapatinib; first compound 0.2 µM): 0.759
relative viability (Entinostat + Lapatinib; first compound 0.6325 µM): 0.421
relative viability (Entinostat + Lapatinib; first compound 2 µM): 0.385
relative viability ([1]; first compound 0.02 µM): 0.778
relative viability ([1]; first compound 0.06325 µM): 0.726
relative viability ([1]; first compound 0.2 µM): 0.732
relative viability ([1]; first compound 0.6325 µM): 0.753
relative viability ([1]; first compound 2 µM): 0.627
relative viability (SGI-1776 + Olaparib; first compound 0.08 µM): 0.99
relative viability (SGI-1776 + Olaparib; first compound 0.8 µM): 0.936
relative viability (SGI-1776 + Olaparib; first compound 2.53 µM): 0.911
relative viability (SGI-1776 + Olaparib; first compound 8 µM): 0.91
relative viability (SGI-1776 + Trametinib; first compound 0.08 µM): 0.585
relative viability (SGI-1776 + Trametinib; first compound 0.8 µM): 0.572
relative viability (SGI-1776 + Trametinib; first compound 2.53 µM): 0.293
relative viability (SGI-1776 + Trametinib; first compound 8 µM): 0.472

NCI-H2170
relative viability (Entinostat + Lapatinib; first compound 0.02 µM): 0.289
relative viability (Entinostat + Lapatinib; first compound 0.06325 µM): 0.3
relative viability (Entinostat + Lapatinib; first compound 0.2 µM): 0.304
relative viability (Entinostat + Lapatinib; first compound 0.6325 µM): 0.244
relative viability (Entinostat + Lapatinib; first compound 2 µM): 0.216
relative viability ([1]; first compound 0.02 µM): 0.847
relative viability ([1]; first compound 0.06325 µM): 0.887
relative viability ([1]; first compound 0.2 µM): 0.682
relative viability ([1]; first compound 0.6325 µM): 0.854
relative viability ([1]; first compound 2 µM): 0.496
relative viability (SGI-1776 + Olaparib; first compound 0.08 µM): 0.638
relative viability (SGI-1776 + Olaparib; first compound 0.8 µM): 0.686
relative viability (SGI-1776 + Olaparib; first compound 2.53 µM): 0.651
relative viability (SGI-1776 + Olaparib; first compound 8 µM): 0.614
relative viability (SGI-1776 + Trametinib; first compound 0.08 µM): 0.925
relative viability (SGI-1776 + Trametinib; first compound 0.8 µM): 0.924
relative viability (SGI-1776 + Trametinib; first compound 2.53 µM): 0.855
relative viability (SGI-1776 + Trametinib; first compound 8 µM): 0.912

NCI-H2228
relative viability (Entinostat + Lapatinib; first compound 0.02 µM): 1.12
relative viability (Entinostat + Lapatinib; first compound 0.06325 µM): 1.02
relative viability (Entinostat + Lapatinib; first compound 0.2 µM): 1.08
relative viability (Entinostat + Lapatinib; first compound 0.6325 µM): 0.457
relative viability (Entinostat + Lapatinib; first compound 2 µM): 0.315
relative viability ([1]; first compound 0.02 µM): 0.737
relative viability ([1]; first compound 0.06325 µM): 0.707
relative viability ([1]; first compound 0.2 µM): 0.66
relative viability ([1]; first compound 0.6325 µM): 0.493
relative viability ([1]; first compound 2 µM): 0.317
relative viability (SGI-1776 + Olaparib; first compound 0.08 µM): 0.671
relative viability (SGI-1776 + Olaparib; first compound 0.8 µM): 0.762
relative viability (SGI-1776 + Olaparib; first compound 2.53 µM): 0.548
relative viability (SGI-1776 + Olaparib; first compound 8 µM): 0.396
relative viability (SGI-1776 + Trametinib; first compound 0.08 µM): 0.591
relative viability (SGI-1776 + Trametinib; first compound 0.8 µM): 0.487
relative viability (SGI-1776 + Trametinib; first compound 2.53 µM): 0.52
relative viability (SGI-1776 + Trametinib; first compound 8 µM): 0.35

NCI-H2347
relative viability (Entinostat + Lapatinib; first compound 0.02 µM): 1.05
relative viability (Entinostat + Lapatinib; first compound 0.06325 µM): 0.983
relative viability (Entinostat + Lapatinib; first compound 0.2 µM): 0.784
relative viability (Entinostat + Lapatinib; first compound 0.6325 µM): 0.502
relative viability (Entinostat + Lapatinib; first compound 2 µM): 0.369
relative viability ([1]; first compound 0.02 µM): 1.06
relative viability ([1]; first compound 0.06325 µM): 1.03
relative viability ([1]; first compound 0.2 µM): 1.06
relative viability ([1]; first compound 0.6325 µM): 0.998
relative viability ([1]; first compound 2 µM): 0.842
relative viability (SGI-1776 + Olaparib; first compound 0.08 µM): 0.606
relative viability (SGI-1776 + Olaparib; first compound 0.8 µM): 0.674
relative viability (SGI-1776 + Olaparib; first compound 2.53 µM): 0.632
relative viability (SGI-1776 + Olaparib; first compound 8 µM): 0.614
relative viability (SGI-1776 + Trametinib; first compound 0.08 µM): 0.323
relative viability (SGI-1776 + Trametinib; first compound 0.8 µM): 0.278
relative viability (SGI-1776 + Trametinib; first compound 2.53 µM): 0.3
relative viability (SGI-1776 + Trametinib; first compound 8 µM): 0.277
